# Source: the supplement of paper PMC10307832
# Columns and labels:
# Experiment in all cases: relative viability (nuclei count vs DMSO), 5 days (fraction); higher = more cells survive
# [1] = compound: O=S(=O)(c1ccccc1)N(CC(F)(F)F)c1ccc(C(O)(C(F)(F)F)C(F)(F)F)cc1 + COc1cccc2cc(-c3nc([C@H]4CC[C@H](C(=O)O)CC4)n4ncnc(N)c34)[nH]c12 [OSI-027] (partner 0.5 µM)
# In short: (§1)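 Lung cancer cell lines in 1536-well plates got either a single drug or a fixed anchor-drug dose together with five library-drug doses (not always all listed) in √10 steps, by pin tool, on the day after seeding. Nuclei were counted after 5 days, and relative viability is the treated-to-vehicle ratio of nuclei counts. Values are medians of duplicate plates.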
# [2] = compound: C1=CC2=C(C=CC(=C2)C=C3C(=O)NC(=NCC4=CC=CS4)S3)N=C1 [RO-3306] + Cc1nc(Nc2ncc(C(=O)Nc3c(C)cccc3Cl)s2)cc(N2CCN(CCO)CC2)n1 [Dasatinib] (partner 0.075 µM)
# In short: as §1
# [3] = compound: O=S(=O)(c1ccccc1)N(CC(F)(F)F)c1ccc(C(O)(C(F)(F)F)C(F)(F)F)cc1 + Nc1ncn([C@H]2C[C@H](O)[C@@H](CO)O2)c(=O)n1 [Decitabine] (partner 2 µM)
# In short: as §1
# [4] = compound: C1=CC2=C(C=CC(=C2)C=C3C(=O)NC(=NCC4=CC=CS4)S3)N=C1 [RO-3306] + CC(C)C[C@H](NC(=O)[C@H](Cc1ccccc1)NC(=O)c1cnccn1)B(O)O [Bortezomib] (partner 0.002 µM)
# In short: as §1
# [5] = compound: O=S(=O)(c1ccccc1)N(CC(F)(F)F)c1ccc(C(O)(C(F)(F)F)C(F)(F)F)cc1 + Cc1nc(NC(=O)N2CCC[C@H]2C(N)=O)sc1-c1ccnc(C(C)(C)C(F)(F)F)c1 [Alpelisib] (partner 2 µM)
# In short: as §1
Cell Line,relative viability ([1]; first compound 0.8 µM),relative viability ([1]; first compound 2.53 µM),relative viability ([1]; first compound 8 µM),relative viability ([2]; first compound 0.01 µM),relative viability ([2]; first compound 0.03162 µM),relative viability ([2]; first compound 0.1 µM),relative viability ([2]; first compound 0.3162 µM),relative viability ([2]; first compound 1 µM),relative viability ([3]; first compound 0.8 µM),relative viability ([3]; first compound 2.53 µM),relative viability ([3]; first compound 8 µM),relative viability ([4]; first compound 0.01 µM),relative viability ([4]; first compound 0.03162 µM),relative viability ([4]; first compound 0.1 µM),relative viability ([4]; first compound 0.3162 µM),relative viability ([4]; first compound 1 µM),relative viability ([5]; first compound 0.8 µM),relative viability ([5]; first compound 2.53 µM),relative viability ([5]; first compound 8 µM)
201T,0.685,0.738,0.688,0.584,0.588,0.571,0.529,0.517,0.846,0.858,0.834,1.11,1.11,1.07,1.11,0.934,1,0.915,0.987
A549,–,–,–,–,–,–,–,–,0.411,0.292,0.201,–,–,–,–,–,0.643,0.779,0.677
A-427,0.434,0.479,0.676,0.739,0.565,0.644,0.631,0.551,0.526,0.509,0.551,0.935,1.04,0.942,0.906,0.478,1.11,1.02,1.02
ABC-1,0.539,0.426,0.549,0.644,0.614,0.483,0.458,0.531,–,1.02,1.05,0.262,0.396,0.28,0.287,0.274,0.936,0.916,1.1
BEN,0.344,0.266,0.308,0.381,0.324,0.297,0.307,0.338,0.801,0.773,0.687,0.795,0.724,0.867,0.849,0.747,1.13,0.953,0.902
CAL-12T,0.548,0.554,0.588,0.394,0.279,0.345,0.372,0.356,–,–,–,0.956,–,–,0.992,1.09,1.52,1.13,1.02
COR-L23,0.85,0.793,0.734,0.477,0.392,0.48,0.642,0.374,0.428,0.439,0.461,1.03,–,1.1,1.02,0.772,0.846,0.8,0.867
COR-L 105,0.763,0.581,0.715,0.3,0.302,0.271,0.344,0.335,0.63,0.679,0.649,0.792,0.718,0.777,0.822,0.622,1.13,0.848,0.989
Calu-6,–,–,–,–,–,–,–,–,–,–,–,1.07,1.06,1.05,0.995,1.01,0.82,0.77,0.885
ChaGo-K-1,0.687,0.522,0.6,0.63,0.624,0.569,0.622,0.349,0.746,0.497,0.49,1.01,0.935,0.656,0.756,0.673,–,–,–
EBC-1,–,–,–,–,–,–,–,–,–,–,–,0.616,0.5,0.501,0.529,0.572,0.572,0.474,0.547
EKVX,0.746,0.646,0.691,0.349,–,0.514,0.55,0.492,0.405,0.286,0.209,1.23,0.923,1.06,1.12,0.989,0.892,0.803,0.955
EMC-BAC-2,0.455,0.422,0.37,0.337,0.522,0.329,0.326,0.304,0.973,0.908,0.974,1.21,0.912,1.11,1.06,1.01,0.874,0.754,0.757
EPLC-272H,0.301,0.304,0.25,0.365,0.193,0.384,0.237,0.299,0.412,0.374,0.359,0.735,0.526,0.825,0.769,0.843,0.818,1.04,0.681
H3255,0.63,0.597,0.603,0.358,0.381,0.353,0.327,0.329,0.567,0.473,0.642,0.747,0.707,0.738,0.792,0.677,0.783,0.632,0.569
HARA,0.397,0.469,0.425,0.362,0.256,0.356,0.306,0.257,0.426,–,0.657,1.15,0.74,1.11,1.11,0.991,0.647,0.721,0.539
HCC-15,0.799,0.607,0.623,0.594,0.554,0.59,0.534,0.574,0.562,0.419,0.5,1.04,0.804,1.01,1.06,0.727,0.908,0.809,0.823
HCC-44,–,0.482,0.6,–,–,–,–,–,1.03,0.968,0.991,0.879,0.914,0.926,0.882,0.711,0.913,0.946,0.927
HCC-78,0.342,0.399,0.469,0.36,0.345,0.444,0.406,0.384,0.748,0.714,0.599,0.433,0.362,0.511,0.572,0.543,0.349,0.298,0.289
HCC-366,1.16,0.872,0.729,0.794,0.565,0.677,0.668,0.652,0.394,0.376,0.242,1.05,0.633,1.01,1.16,1.06,0.469,0.436,0.428
HCC-827,0.883,0.858,0.766,0.221,0.314,0.24,0.317,0.299,0.364,0.375,0.269,0.995,0.907,1.13,1.02,1.04,1.05,1.05,0.842

Cell Line,relative viability ([1]; first compound 0.8 µM),relative viability ([1]; first compound 2.53 µM),relative viability ([1]; first compound 8 µM),relative viability ([2]; first compound 0.01 µM),relative viability ([2]; first compound 0.03162 µM),relative viability ([2]; first compound 0.1 µM),relative viability ([2]; first compound 0.3162 µM),relative viability ([2]; first compound 1 µM),relative viability ([3]; first compound 0.8 µM),relative viability ([3]; first compound 2.53 µM),relative viability ([3]; first compound 8 µM),relative viability ([4]; first compound 0.01 µM),relative viability ([4]; first compound 0.03162 µM),relative viability ([4]; first compound 0.1 µM),relative viability ([4]; first compound 0.3162 µM),relative viability ([4]; first compound 1 µM),relative viability ([5]; first compound 0.8 µM),relative viability ([5]; first compound 2.53 µM),relative viability ([5]; first compound 8 µM)
HOP-62,0.904,0.878,0.665,0.709,0.516,0.633,0.757,0.504,0.252,0.193,0.239,0.505,0.961,0.674,0.882,1.03,0.551,0.954,0.706
IA-LM,–,–,–,–,–,–,–,–,–,–,–,0.86,0.8,0.745,0.6,0.969,0.715,0.5,0.655
LC-2-ad,0.876,0.889,0.827,0.57,0.311,0.582,0.533,0.507,0.825,0.803,0.709,1.1,0.976,0.965,1.09,0.712,0.576,0.843,0.841
LCLC-97TM1,0.614,0.527,0.603,0.792,0.714,0.929,0.779,0.859,–,0.22,0.196,1.06,–,0.689,0.455,0.531,0.241,0.252,0.263
LK-2,0.213,0.199,0.229,0.333,–,0.489,0.258,0.283,0.333,0.347,0.325,–,–,–,–,–,1.08,1.16,1.05
NCI-H358,0.743,0.751,0.543,0.145,0.155,0.169,0.133,0.191,–,0.19,0.129,–,–,–,–,–,0.647,0.729,0.695
NCI-H522,0.615,0.754,0.903,0.895,0.854,0.82,0.823,0.846,0.565,0.608,0.746,–,–,–,–,–,–,–,–
NCI-H1299,–,–,–,–,–,–,–,–,–,–,–,1.07,1.07,1.04,1.07,1.05,1.09,1.08,1.03
NCI-H1395,0.512,0.57,0.579,0.4,0.494,0.372,0.409,0.587,0.712,0.741,0.815,–,–,–,–,–,0.936,1.02,1.29
NCI-H1563,0.792,0.734,0.854,0.413,0.526,0.415,0.48,0.451,–,–,–,0.921,0.75,0.787,0.939,0.753,0.923,0.833,0.788
NCI-H1623,0.469,0.389,0.484,0.474,0.504,0.525,0.555,0.52,–,–,–,–,–,–,–,–,–,–,–
NCI-H1648,0.248,0.254,0.185,–,–,–,–,–,0.462,0.546,0.595,–,–,–,–,–,–,–,–
NCI-H1650,0.58,0.542,0.603,0.326,0.284,0.311,0.33,0.291,0.463,0.454,0.465,0.204,0.184,0.181,0.192,0.185,–,–,–
NCI-H1703,–,–,–,–,–,–,–,–,–,–,–,0.646,0.261,0.349,0.203,0.289,0.343,0.316,0.382
NCI-H1793,0.292,0.188,0.207,0.341,0.345,0.324,0.451,0.353,0.262,0.384,0.4,–,–,–,–,–,0.585,0.491,0.578
NCI-H1944,0.423,0.385,0.401,0.209,0.212,0.206,0.223,0.217,0.461,0.456,0.483,–,–,–,–,–,0.802,0.837,0.738
NCI-H2170,0.653,0.663,0.685,0.492,0.585,0.57,0.621,0.456,0.496,0.439,0.475,–,–,–,–,–,0.961,0.804,0.798
NCI-H2228,0.542,0.348,0.521,0.569,0.435,0.47,0.562,0.453,–,–,–,0.937,0.47,0.917,0.893,0.636,0.88,0.491,0.502
NCI-H2342,0.646,0.626,0.58,0.37,0.306,0.319,0.289,0.303,0.82,0.837,0.738,–,–,–,–,–,–,–,–
SK-MES-1,0.639,0.647,0.443,0.341,0.44,0.344,0.379,0.348,0.375,0.337,0.366,–,–,–,–,–,0.827,0.789,0.848
SW 900,0.52,0.519,0.591,0.505,0.538,0.658,0.859,0.542,0.417,0.427,0.429,–,–,–,–,–,–,–,–
